In patent US8552161B2, “Saponin compounds, methods of preparation thereof, use thereof and pharmaceutical compositions” (Uniwersytet W Bialymstoku, priority 2009, dated 2013):

Columns and labels:
[1] = system: T-lymphoblastic leukemia cell line CEM; assay: Calcein AM cytotoxicity assay, CEM; format: cell-based; conditions: Calcein AM assay, 72 h; means ± SD, three independent experiments in triplicate
Method: (§1) Stock solutions (10 mmol/l) of the tested compounds were prepared by dissolving relevant quantity of the substance in DMSO. […] Calcein AM was obtained from Molecular Probes (Invitrogen Corporation, CA, USA).
(§2) All cell lines were cultured in DMEM medium (Sigma, Mo., USA). Medium was supplemented with 10% heat-inactivated fetal bovine serum, 2 mmol/l L-glutamine and 1% penicillin-streptomycin. The cell lines were maintained under standard cell culture conditions at 37° C. and 5% CO2 in a humid environment. Cells were subcultured twice or three times a week using the standard trypsinization procedure.
(§3) All cell lines were cultured in DMEM medium (Sigma, Mo., USA) supplemented with 10% fetal calf serum, 2 mM glutamine, 100 U/ml penicillin and 100 μg/ml streptomycin, at 37° C. in a fully humidified atmosphere containing 5% CO2. Suspensions of these lines (ca. 1.0×10^5 cells/ml) were placed in 96-well microtitre plates and after 3 h of stabilization the tested compounds were added in serially diluted concentrations. Saponins were dissolved in dimethylsulfoxide (DMSO) before addition to cultures. Control cultures were treated with DMSO alone. The final concentration of DMSO in the reaction mixtures never exceeded 0.6%. Four-fold dilutions of the intended test concentration were added at time zero in 20 μl aliquots to the microtitre plate wells. Usually, each test compound was evaluated at six 4-fold dilutions and in routine testing; the highest well concentration was 50 μM, although this varied in a few cases, depending on the test compound. After 72 h of culture, the cells were incubated with Calcein AM solution (Molecular Probes) for 1 h. The fluorescence of viable cells was quantified using a Fluoroscan Ascent instrument (Microsystems).

[2] = system: breast carcinoma cell line MCF7; assay: Calcein AM cytotoxicity assay, MCF7; format: cell-based, human; conditions: Calcein AM assay, 72 h; means ± SD, three independent experiments in triplicate
Method: as §1, §2, §3

[3] = system: malignant melanoma cell line G-361; assay: Calcein AM cytotoxicity assay, G-361; format: cell-based, human; conditions: 72 h, means ± SD, three independent experiments in triplicate
Method: as §1, §2, §3

[4] = system: cervical carcinoma cell line HeLa; assay: Calcein AM cytotoxicity assay, HeLa; format: cell-based; conditions: 72 h, means ± SD, three independent experiments in triplicate
Method: as §1, §2, §3

[5] = system: lung carcinoma cell line A549; assay: Calcein AM cytotoxicity assay, A549; format: cell-based, human; conditions: 72 h, means ± SD, three independent experiments in triplicate, read-out: IC50, A 549
Method: as §1, §2, §3

[6] = system: normal human fibroblasts BJ; assay: Calcein AM cytotoxicity assay, normal fibroblasts BJ; format: cell-based; conditions: 72 h, means ± SD, three independent experiments in triplicate
Method: as §1, §2, §3

caspase-3/7 in CEM cells = assay: Activity of caspases-3/7 in treated CEM cells (Ac-DEVD-AMC substrate); format: cell-based; conditions: for activity of caspases-3/7 compared with untreated control: 24 h, 3 (1; 2.5; 5 μM), 6 (0.1; 0.25; 0.5 μM)
Method: The CEM cells treated with the novel compounds were harvested by centrifugations and homogenized in an extraction buffer (10 mM KCl, 5 mM HEPES, 1 mM EDTA, 1 mM EGTA, 0.2% CHAPS, inhibitors of proteases, pH 7.4) on ice for 20 min. The homogenates were clarified by centrifugation at 10,000 g for […] at 4° C., the proteins were quantified by the Bradford method and diluted to the same concentration. Lysates were then incubated for 1 h with […] Ac-DEVD-AMC as a substrate (Sigma-Aldrich) in an assay buffer (25 mM PIPES, 2 mM EGTA, 2 mM MgCl2, 5 mM DTT, pH 7.3). For negative controls, the lysates were supplemented with […] Ac-DEVD-CHO as a caspase-3/7 inhibitor (Sigma-Aldrich). The fluorescence of the product was measured using a Fluoroskan Ascent microplate reader (Labsystems) at 346/442 nm (ex/em). Here, we determined the activity of caspase-3/7 in CEM cells exposed to 3, 6 or 7 using a fluorogenic substrate Ac-DEVD-AMC and/or caspase 3/7 inhibitor […]. Cells were treated in a dose-dependent manner with compounds 3 (1; 2.5; 5 μM), 6 (0.1; 0.25; 0.5 μM) and 7 (5; 7.5; 10 μM).

CEM cells = assay: Flow cytometry cell cycle and apoptosis (subG1) analysis; format: cell-based; conditions: for distribution of CEM cells in cell cycle phases (FIG. 2): increasing concentrations
Method: The leukemia cancer CEM cells were trypsinized, seeded in 6 well plates, and immediately incubated with the respective compounds. […] Triton X-100, and 50 μg/ml propidium iodide in PBS. DNA content was assessed with a flow cytometer (Cell Lab Quanta SC—MPL, Beckman Coulter, Calif., USA). In a histogram analysis, distribution of cells into the subG1 (“apoptotic cells”), the G0/G1, S and the G2/M peak was quantified using software MultiCycle AV (Phoenix Flow Systems, CA, USA).

leukemia cells (CEM) = assay: Western blot analysis of apoptosis related proteins; format: cell-based; conditions: 24 h
Method: The cells were seeded in a density 2.2×10^4 cells/cm^2 using culture medium in 100-mm culture dishes. Immediately the cells were treated by novel saponins: 3 (1; 2.5; 5 μM), 6 (0.1; 0.25; 0.5 μM) and 7 (5; 7.5; 10 μM). DMSO was used as a vehicle for controls. After 24 h treatment, the cells were washed three times with cold PBS (10 mM, pH 7.4) and lysed in ice-cold protein extract RIPA buffer (20 mM Tris-HCl, pH 7.4, 5 mM EDTA, 2 mM EGTA, 100 mM NaCl, 2 mM NaF, 0.2% Nonidet P-40, 30 mM PMSF, 1 mM DTT, […] of aprotinin and leupeptin). The lysate was collected into microfuge tube and incubated on ice for 1 h. It was then cleared by centrifugation at 10,000×g for […] at 4° C., and supernatant was collected, aliquoted, and stored at −80° C. Proteins in lysates were quantified by the Bradford method and then diluted with Laemmli electrophoresis buffer. Proteins were then separated on 10% or 12% SDS-polyacrylamide gels, transferred onto nitrocellulose membranes (Bio-Rad Laboratories, CA, USA) and stained with Ponceau S to check equal protein loading. The membranes were blocked with 5% (w/v) non-fat dry milk and 0.1% Tween-20 in PBS for 2 h and probed with the specific primary antibodies overnight. After washing in PBS and PBS with 0.1% Tween-20, the membranes were probed with horseradish peroxidase-conjugated secondary antibodies and visualized with chemiluminescent detection reagent West Pico Supersignal (Thermo Fisher Scientific, Rockford, USA). To confirm equal protein loading, immunodetection was performed with the anti-α-tubulin monoclonal antibody. The experiments were repeated three times. The protein expressions in treated cells were compared to untreated controls.

## COc1ccc(C(=O)O[C@H]2[C@H](O[C@@H]3[C@@H](OC(C)=O)[C@H](O[C@H]4C[C@H]5[C@@H]6CC=C7C[C@@H](O)CC[C@]7(C)[C@H]6CC[C@]5(C)[C@@]4(O)[C@H](C)COCc4ccccc4)OC[C@@H]3O)OC[C@@H](O)[C@@H]2O)cc1 [Compound 1, (20R)-21-Benzyloxy-20-methylpregn-5-ene-3β,16β,17α-triol 16-O-{2-O-(4-methoxybenzoyl)-β-D-xylopyranosyl-(1→3)-2′-O-acetyl-α-L-arabinopyranoside}]
[1]
  IC50: 20 ± 1 nM
[2]
  IC50: 600 ± 100 nM
[3]
  IC50: 750 ± 80 nM
[4]
  IC50: 200 ± 10 nM
[5]
  IC50: 100 ± 50 nM
[6]
  IC50: 300 ± 40 nM

## COc1ccc(C(=O)O[C@H]2[C@H](O[C@@H]3[C@@H](OC(C)=O)[C@H](O[C@H]4C[C@H]5[C@@H]6CC=C7C[C@@H](O)CC[C@]7(C)[C@H]6CC[C@]5(C)[C@@]4(O)[C@H](C)COC(=O)c4ccccc4)OC[C@@H]3O)OC[C@@H](O)[C@@H]2O)cc1 [Compound 2, (20R)-21-O-benzoyl-20-methylpregn-5-ene-3β,16β,17α,21-tetraol 16-O-{2-O-(4-methoxybenzoyl)-β-D-xylopyranosyl-(1→3)-2′-O-acetyl-α-L-arabinopyranoside}]
[1]
  IC50: 70 ± 10 nM
[2]
  IC50: 700 ± 100 nM
[3]
  IC50: 1660 ± 900 nM
[4]
  IC50: 240 ± 60 nM
[5]
  IC50: 170 ± 40 nM
[6]
  IC50: 100 ± 20 nM

## COc1ccc(C(=O)OCC(C)C2(O)C(OC3OCC(O)C(OC4OCC(O)C(O)C4OC(=O)c4ccc(OC)cc4)C3OC(C)=O)CC3C4CC=C5CC(O)CCC5(C)C4CCC32C)cc1 [Compound 3, (20R)-21-O-(4-methoxybenzoyl)-20-methylopregn-5-ene-3β,16β,17α,21-tetraol 16-O-{2-O-(4-methoxybenzoyl)-β-D-xylopyranosyl-(1→3)-2′-O-acetyl-α-L-arabinopyranoside]
caspase-3/7 in CEM cells
  activity of caspases-3/7 compared with untreated control: twofold enhancement
  caspase-3/7 activity after treatment with higher concentrations: caspase-3/7 activity decreased
CEM cells; CEM cell line after treatment
  subG1 phase of the cell cycle (apoptotic cells): increase in subG1 phase
CEM cells
  distribution of CEM cells in cell cycle phases (FIG. 2): increased the number of S-phase and G2/M cells with concomitant decrease of G0/G1 cells in dose-dependent manner
CEM cells; CEM, 24 h, 0.5 μM
  Apoptosis subG1: 11%
  Cell cycle distribution G0/G1: 17%
  Cell cycle distribution G2/M: 26%
  Cell cycle distribution S: 46%
Leukemia cells (CEM); dose-dependent (FIG. 5)
  PARP (Western blot): cleavage of PARP
  caspase-3 (Western blot): accumulation of caspase-3

## CCCCC(=O)OC[C@@H](C)[C@@]1(O)[C@@H](O[C@@H]2OC[C@H](O)[C@H](O[C@@H]3OC[C@@H](O)[C@H](O)[C@H]3OC(=O)c3ccc(OC)cc3)[C@H]2OC(C)=O)C[C@H]2[C@@H]3CC=C4C[C@@H](O)CC[C@]4(C)[C@H]3CC[C@@]21C [Compound 4, (20R)-21-O-pentanoyl-20-methylpregn-5-ene-3β,16β,17α,21-tetraol 16-O-{2-O-(4-methoxybenzoyl)-β-D-xylopyranosyl-(1→3)-2′-O-acetyl-α-L-arabinopyranoside}]
[1]
  IC50: 60 ± 10 nM
[2]
  IC50: 500 ± 70 nM
[3]
  IC50: 390 ± 60 nM
[4]
  IC50: 170 ± 10 nM
[5]
  IC50: 160 ± 40 nM
[6]
  IC50: 500 ± 60 nM

## CCCCCCC(=O)OC[C@@H](C)[C@@]1(O)[C@@H](O[C@@H]2OC[C@H](O)[C@H](O[C@@H]3OC[C@@H](O)[C@H](O)[C@H]3OC(=O)c3ccc(OC)cc3)[C@H]2OC(C)=O)C[C@H]2[C@@H]3CC=C4C[C@@H](O)CC[C@]4(C)[C@H]3CC[C@@]21C [Compound 5, (20R)-21-O-Heptanoyl-20-methylpregn-5-ene-3β,16β,17α,21-tetraol 16-O-{2-O-(4-methoxybenzoyl)-β-D-xylopyranosyl-(1-3)-2′-O-acetyl-α-L-arabinopyranoside}]
[1]
  IC50: 10 ± 2 nM
[2]
  IC50: 400 ± 40 nM
[3]
  IC50: 1280 ± 200 nM
[4]
  IC50: 30 ± 2 nM
[5]
  IC50: 20 ± 5 nM
[6]
  IC50: 600 ± 70 nM

## C=CCCCCCCCCC(=O)OC[C@@H](C)[C@@]1(O)[C@@H](O[C@@H]2OC[C@H](O)[C@H](O[C@@H]3OC[C@@H](O)[C@H](O)[C@H]3OC(=O)c3ccc(OC)cc3)[C@H]2OC(C)=O)C[C@H]2[C@@H]3CC=C4C[C@@H](O)CC[C@]4(C)[C@H]3CC[C@@]21C [Compound 6, (20R)-21-O-(Undec-10-enoyl)-20-methylpregn-5-ene-3β,16β,17α,21-tetraol 16-O-{2-O-(4-methoxybenzoyl)-β-D-xylopyranosyl-(1→3)-O-acetyl-α-L-arabinopyranoside}]
caspase-3/7 in CEM cells
  activity of caspases-3/7 compared with untreated control: twofold enhancement
  caspase-3/7 activity after treatment with higher concentrations: caspase-3/7 activity decreased
CEM cells
  distribution of CEM cells in cell cycle phases (FIG. 2): increased the number of S-phase and G2/M cells with concomitant decrease of G0/G1 cells in dose-dependent manner
Leukemia cells (CEM); dose-dependent (FIG. 5)
  PARP (Western blot): cleavage of PARP
  antiapoptotic Bcl-2 protein: increased
  caspase-3 (Western blot): accumulation of caspase-3
  expression of tumour suppressor protein p53: enhanced expression
Leukemia cells (CEM); same concentrations (FIG. 5)
  phosphorylation of pRb S780: increase of phosphorylation of pRb S780
